Test results as given in US10688200B2, “Urea-based prostate specific membrane antigen (PSMA) inhibitors for imaging and therapy” (Five Eleven Pharma Inc., priority 2015, dated 2020).

Tests used:
PSMA [1] = assay: In vitro autoradiography of LNCaP tumor and mouse kidney sections; format: binding; details: incubation with 2-PMPA
Procedure: LNCaP tumor and mouse kidneys were cut at 20 μm on a cryostat, thaw-mounted onto slides. Slides are incubated with radiotracers (3 μCi/ml) in PBS for 30 min and washed with PBS twice for 3 min each. After drying, the slides put into a plate for exposure for 30 min. Images were acquired with Typhoon FLA 7000 (GE Healthcare).
To validate the PSMA binding, in vitro autoradiography studies using LNCaP tumor and mouse kidney sections were carried out.
FIGS. 2A-2K show in vitro autoradiography of LNCaP tumor (left side) and mouse kidney sections (right side). […] These new PSMA target compounds, display high uptake in the sections. [^68Ga]1a (PSMA-11) was used as a control.

[2] = Biodistribution of radiotracers in normal mice; format: in vivo, mouse; details: normal male mice
Summary of the method: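 Male CD-1 mice received 35 μCi [^68Ga] radiotracer (0.2 nmole ligand) by tail vein. Four mice per time point sacrificed at 2, 30, 60 and 120 min p.i.; organs and blood weighed and gamma counted. %ID/g calculated against a standard dilution of the dose, decay-corrected.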

[3] = system: PSMA expressing LNCaP cells; assay: Cell uptake comparisons in LNCaP cells (FIG. 1); format: cell-based, human; details: 1 hr at 37° C.
Procedure: Cell uptake studies were performed using PSMA expressing LNCaP cells. Cells were grown in 6 well plates for 2 days. After incubation with ^68Ga-labeled ligands for 1 hr at 37° C., media were removed. After washing twice with 3 mL PBS buffer, cells were lysed with 0.1 N NaOH. Lysed cells were wiped with filter paper and radioactivity in filter paper was measured with a gamma counter.
The LNCaP cells over express PSMA receptor binding sites, the level of binding, % uptake/well, was an indicator of PSMA binding, the higher the better. [^68Ga]1a, a known PSMA imaging agent (PSMA-11), was used as a control.

PSMA [4] = target: T1, PSMA (Homo sapiens, UniProt Q04609); assay: In vitro binding signals of 68Ga labeled ligands in LNCaP tumor homogenates; details: Ga-68 radiolabeled ligands; for Nonspecific binding (NSB): with 1a (PSMA11) 10 μM
T1 construct: 100 μL of freshly harvested PSMA cells; endogenous in cells; host or cells: 'PSMA cells' in the method
T1 sequence (Q04609 whole entry): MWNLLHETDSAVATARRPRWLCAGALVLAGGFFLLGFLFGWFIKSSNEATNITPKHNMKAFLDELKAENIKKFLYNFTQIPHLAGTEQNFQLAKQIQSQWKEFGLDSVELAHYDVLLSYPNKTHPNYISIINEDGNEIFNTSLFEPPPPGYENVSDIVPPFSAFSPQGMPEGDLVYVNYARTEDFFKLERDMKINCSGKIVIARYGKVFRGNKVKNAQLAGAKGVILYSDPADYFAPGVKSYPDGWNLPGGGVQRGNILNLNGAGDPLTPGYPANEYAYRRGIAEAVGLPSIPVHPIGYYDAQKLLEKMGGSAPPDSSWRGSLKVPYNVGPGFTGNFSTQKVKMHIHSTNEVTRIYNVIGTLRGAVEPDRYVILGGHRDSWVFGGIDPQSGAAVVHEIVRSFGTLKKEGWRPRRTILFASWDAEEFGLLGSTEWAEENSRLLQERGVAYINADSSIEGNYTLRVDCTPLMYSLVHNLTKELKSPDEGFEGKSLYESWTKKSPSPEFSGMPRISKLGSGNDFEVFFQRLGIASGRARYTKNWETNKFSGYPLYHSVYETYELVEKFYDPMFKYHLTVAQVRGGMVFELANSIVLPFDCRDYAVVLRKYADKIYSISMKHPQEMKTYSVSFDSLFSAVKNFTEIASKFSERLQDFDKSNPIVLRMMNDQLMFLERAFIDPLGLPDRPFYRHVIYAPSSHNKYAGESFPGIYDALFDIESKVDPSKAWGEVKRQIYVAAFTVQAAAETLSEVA

Compound: 2-(3-mercaptopropyl)pentane-dioic acid [Compound 2-PMPA]
- Blocking of radiotracer binding in autoradiography, in words (PSMA [1]): blocked radiotracers' binding to tumor and kidney

Compound: O=C(O)CCc1ccc2c(n1)C[N+]13CC[N+]45CC(=O)[O][68Ga-3]14([O]C(=O)C3)([O]2)[O]c1ccc(CCC(=O)NCCCCCC(=O)NCCCC[C@H](NC(=O)N[C@@H](CCC(=O)O)C(=O)O)C(=O)O)nc1C5 (some centres unmarked) [[^68Ga]2]
- Biodistribution: Blood ([2]; 2 min): 8.92 ± 0.75 % dose/g
- Biodistribution: Bone ([2]; 2 min): 2.18 ± 0.08 % dose/g
- Biodistribution: Brain ([2]; 2 min): 0.24 ± 0.02 % dose/g
- Biodistribution: Heart ([2]; 2 min): 3.40 ± 0.45 % dose/g
- Biodistribution: Kidney ([2]; 2 min): 56.4 ± 8.05 % dose/g
- Biodistribution: Liver ([2]; 2 min): 2.01 ± 0.08 % dose/g
- Biodistribution: Lung ([2]; 2 min): 5.18 ± 0.52 % dose/g
- Biodistribution: Muscle ([2]; 2 min): 2.00 ± 0.25 % dose/g
- Biodistribution: Pancreas ([2]; 2 min): 1.85 ± 0.17 % dose/g
- Biodistribution: Skin ([2]; 2 min): 3.07 ± 0.05 % dose/g
- Biodistribution: Spleen ([2]; 2 min): 3.57 ± 0.20 % dose/g
- Biodistribution: Blood ([2]; 30 min): 1.18 ± 0.15 % dose/g
- Biodistribution: Bone ([2]; 30 min): 0.48 ± 0.02 % dose/g
- Biodistribution: Brain ([2]; 30 min): 0.05 ± 0.00 % dose/g
- Biodistribution: Heart ([2]; 30 min): 0.51 ± 0.03 % dose/g
- Biodistribution: Kidney ([2]; 30 min): 108 ± 8.66 % dose/g
- Biodistribution: Liver ([2]; 30 min): 0.33 ± 0.01 % dose/g
- Biodistribution: Lung ([2]; 30 min): 1.07 ± 0.12 % dose/g
- Biodistribution: Muscle ([2]; 30 min): 0.46 ± 0.03 % dose/g
- Biodistribution: Pancreas ([2]; 30 min): 0.76 ± 0.12 % dose/g
- Biodistribution: Skin ([2]; 30 min): 0.88 ± 0.08 % dose/g
- Biodistribution: Spleen ([2]; 30 min): 1.33 ± 0.08 % dose/g
- Biodistribution: Blood ([2]; 60 min): 0.89 ± 0.10 % dose/g
- Biodistribution: Bone ([2]; 60 min): 0.43 ± 0.01 % dose/g
- Biodistribution: Brain ([2]; 60 min): 0.03 ± 0.00 % dose/g
- Biodistribution: Heart ([2]; 60 min): 0.33 ± 0.02 % dose/g
- Biodistribution: Kidney ([2]; 60 min): 67.8 ± 15.57 % dose/g
- Biodistribution: Liver ([2]; 60 min): 0.25 ± 0.06 % dose/g
- Biodistribution: Lung ([2]; 60 min): 0.72 ± 0.16 % dose/g
- Biodistribution: Muscle ([2]; 60 min): 0.24 ± 0.01 % dose/g
- Biodistribution: Pancreas ([2]; 60 min): 0.44 ± 0.08 % dose/g
- Biodistribution: Skin ([2]; 60 min): 0.46 ± 0.10 % dose/g
- Biodistribution: Spleen ([2]; 60 min): 0.84 ± 0.24 % dose/g
- Biodistribution: Blood ([2]; 120 min): 0.78 ± 0.04 % dose/g
- Biodistribution: Bone ([2]; 120 min): 0.60 ± 0.03 % dose/g
- Biodistribution: Brain ([2]; 120 min): 0.03 ± 0.01 % dose/g
- Biodistribution: Heart ([2]; 120 min): 0.28 ± 0.02 % dose/g
- Biodistribution: Kidney ([2]; 120 min): 26.9 ± 6.13 % dose/g
- Biodistribution: Liver ([2]; 120 min): 0.22 ± 0.01 % dose/g
- Biodistribution: Lung ([2]; 120 min): 0.45 ± 0.01 % dose/g
- Biodistribution: Muscle ([2]; 120 min): 0.18 ± 0.01 % dose/g
- Biodistribution: Pancreas ([2]; 120 min): 0.30 ± 0.04 % dose/g
- Biodistribution: Skin ([2]; 120 min): 0.29 ± 0.03 % dose/g
- Biodistribution: Spleen ([2]; 120 min): 0.36 ± 0.04 % dose/g
- Cell uptake (% uptake/well), in words [3]: low cell uptakes
- Specific binding (SB) SB = TB − NSB (PSMA [4]): lower specific binding
- Nonspecific binding (NSB) (PSMA [4]): high nonspecific binding

Compound: O=C(O)CC[C@H](NC(=O)N[C@@H](CCCCNC(=O)CCCCCNC(=O)CCc1ccc2c(n1)C[N+]13CC[N+]45CC(=O)[O][68Ga-3]14([O]C(=O)C3)([O]2)[O]c1ccc(CCC(=O)NCCCCCC(=O)NCCCC[C@H](NC(=O)N[C@@H](CCC(=O)O)C(=O)O)C(=O)O)nc1C5)C(=O)O)C(=O)O (some centres unmarked) [[^68Ga]3]
- Biodistribution: Blood ([2]; 2 min): 8.94 ± 1.57 % dose/g
- Biodistribution: Bone ([2]; 2 min): 3.53 ± 0.96 % dose/g
- Biodistribution: Brain ([2]; 2 min): 0.33 ± 0.06 % dose/g
- Biodistribution: Heart ([2]; 2 min): 4.34 ± 1.15 % dose/g
- Biodistribution: Kidney ([2]; 2 min): 56.2 ± 6.53 % dose/g
- Biodistribution: Liver ([2]; 2 min): 3.42 ± 0.11 % dose/g
- Biodistribution: Lung ([2]; 2 min): 7.49 ± 2.71 % dose/g
- Biodistribution: Muscle ([2]; 2 min): 2.02 ± 0.74 % dose/g
- Biodistribution: Pancreas ([2]; 2 min): 2.89 ± 0.61 % dose/g
- Biodistribution: Skin ([2]; 2 min): 2.63 ± 0.48 % dose/g
- Biodistribution: Spleen ([2]; 2 min): 5.14 ± 1.49 % dose/g
- Biodistribution: Blood ([2]; 30 min): 3.19 ± 0.72 % dose/g
- Biodistribution: Bone ([2]; 30 min): 1.70 ± 0.20 % dose/g
- Biodistribution: Brain ([2]; 30 min): 0.09 ± 0.01 % dose/g
- Biodistribution: Heart ([2]; 30 min): 0.93 ± 0.22 % dose/g
- Biodistribution: Kidney ([2]; 30 min): 94.4 ± 13.7 % dose/g
- Biodistribution: Liver ([2]; 30 min): 1.71 ± 0.05 % dose/g
- Biodistribution: Lung ([2]; 30 min): 1.38 ± 0.17 % dose/g
- Biodistribution: Muscle ([2]; 30 min): 1.53 ± 0.68 % dose/g
- Biodistribution: Pancreas ([2]; 30 min): 1.36 ± 0.32 % dose/g
- Biodistribution: Skin ([2]; 30 min): 1.48 ± 0.34 % dose/g
- Biodistribution: Spleen ([2]; 30 min): 4.35 ± 0.37 % dose/g
- Biodistribution: Blood ([2]; 60 min): 1.52 ± 0.44 % dose/g
- Biodistribution: Bone ([2]; 60 min): 2.34 ± 1.08 % dose/g
- Biodistribution: Brain ([2]; 60 min): 0.06 ± 0.04 % dose/g
- Biodistribution: Heart ([2]; 60 min): 0.82 ± 0.22 % dose/g
- Biodistribution: Kidney ([2]; 60 min): 61.3 ± 5.97 % dose/g
- Biodistribution: Liver ([2]; 60 min): 1.81 ± 0.14 % dose/g
- Biodistribution: Lung ([2]; 60 min): 1.29 ± 0.31 % dose/g
- Biodistribution: Muscle ([2]; 60 min): 1.01 ± 0.29 % dose/g
- Biodistribution: Pancreas ([2]; 60 min): 1.34 ± 0.45 % dose/g
- Biodistribution: Skin ([2]; 60 min): 2.35 ± 0.34 % dose/g
- Biodistribution: Spleen ([2]; 60 min): 1.75 ± 0.17 % dose/g
- Biodistribution: Blood ([2]; 120 min): 1.00 ± 0.30 % dose/g
- Biodistribution: Bone ([2]; 120 min): 3.56 ± 1.08 % dose/g
- Biodistribution: Brain ([2]; 120 min): 0.05 ± 0.02 % dose/g
- Biodistribution: Heart ([2]; 120 min): 0.84 ± 0.20 % dose/g
- Biodistribution: Kidney ([2]; 120 min): 30.3 ± 8.87 % dose/g
- Biodistribution: Liver ([2]; 120 min): 2.00 ± 0.20 % dose/g
- Biodistribution: Lung ([2]; 120 min): 0.97 ± 0.12 % dose/g
- Biodistribution: Muscle ([2]; 120 min): 1.13 ± 0.50 % dose/g
- Biodistribution: Pancreas ([2]; 120 min): 1.21 ± 0.19 % dose/g
- Biodistribution: Skin ([2]; 120 min): 1.22 ± 0.20 % dose/g
- Biodistribution: Spleen ([2]; 120 min): 1.71 ± 0.56 % dose/g
- Cell uptake (% uptake/well), in words [3]: low cell uptakes
- Specific binding (SB) SB = TB − NSB (PSMA [4]): lower specific binding
- Nonspecific binding (NSB) (PSMA [4]): high nonspecific binding
